In patent US20100210555A1, “USE OF A LAMININ PEPTIDE AS A THERAPEUTIC AGENT” (priority 2007, published 2010):
Where no end group is shown, it is not given here.

Key:
[1] = test system: hepatitis B virus (HBV) ayw strain; assay: HBV experimental assay system (HepG2-2.2.15, TaqMan PCR of secreted HBV DNA); format: cell-based; conditions: 10 micrograms per ml; HepG2-2.2.15 cells, six days
Text: HepG2-2.2.15 is a stable cell line containing the hepatitis B virus (HBV) ayw strain genome (ATCC Cat. No. CRL-11997). Antiviral compounds blocking any late step of viral replication such as transcription, translation, pregenome encapsidation, reverse transcription, particle assembly and release can be identified and characterized using this cell line. In this assay, an active compound will reduce the production of secreted HBV from cells, measured by utilizing real time quantitative PCR (TaqMan) assay to directly and accurately measure HBV DNA copies.
HepG2-2.2.15 cells were plated in 96-well microtiter plates. After 16-24 hours the confluent monolayer of HepG2-2.2.15 cells was washed and the medium was replaced with complete medium containing test peptides—10 micrograms per ml—in duplicate. […] Six days following the initial administration of the peptides, the cell culture supernatants was collected, treated with pronase and DNAse and then used in a real-time quantitative TaqMan PCR assay. The PCR-amplified HBV DNA was detected in real-time by monitoring increases in fluorescence signals that result from the exonucleolytic degradation of a quenched fluorescence probe molecule that hybridizes to the mplified HBV DNA. […] Antiviral activity was calculated from the reduction in HBV DNA levels (% virus control). […]

spleen cells = assay: Th1/Th2 cytokine profiling assay; format: cell-based, Balb/c mice; conditions: 10 micrograms per ml; Ovalbumin restimulation, 72 hours
[2] = test system: Primary Human endothelial cells (HUVEC); assay: Endothelial cell migration assay; format: cell-based; conditions: 10 micrograms per ml, 22 hours, combination peptide 1:peptide 2 0.95 mole: 1.05 mole
HUVEC = assay: Endothelial tube formation assay; format: cell-based, human; conditions: 10 micrograms per ml, 20 hours, combination peptide 1:peptide 2 0.95 mole: 1.05 mole
Text: Positive control was vehicle only.

HCMV strain AD169 = assay: HCMV plaque formation assay in MRC-5 cells; conditions: for inhibition of HCMV plaque formation as compared to the virus control: 10 micrograms per ml, 7-10 days

Compound	inhibition of HBV replication as compared to the virus control infection [1]	IFNγ spleen cells; TH1 response (% of control) (spleen cells)	IL-2 spleen cells (% of control) (spleen cells)	IL-4 spleen cells; TH2 response (% of control) (spleen cells)	IL-5 spleen cells; TH2 response (% of control) (spleen cells)	TNF-a spleen cells; TH1 response (% of control) (spleen cells)	inhibition of the migration of human endothelial cells [2] [%]	inhibition of the tube formation of endothelial cells (HUVEC) [%]	inhibition of HCMV plaque formation as compared to the virus control (HCMV strain AD169)	antiviral activity of positive control compound (HCMV) (HCMV strain AD169; positive control, HCMV AD169)
Cys-Ser-Arg-Ala-Arg-Lys-Gln-Ala-Ala-Ser-Ile-Lys-Val-Ala-Val-Ser-Ala-Asp-Arg-OH (CSRARKQAASIKVAVSADR-OH) [peptide 1]	22.1%	88.8 % of control	66.8 % of control	148.8 % of control	64.5 % of control	101.0 % of control	32	30	did not inhibit	
Pro-His-Pro-Phe-His-Leu-Phe-Val-Tyr-OH (PHPFHLFVY-OH) [peptide 2]	no effect	76.6 % of control	70.7 % of control	113.5 % of control	57.6 % of control	111.8 % of control	33	27	did not inhibit	
Nc1nc(O)c2ncn(COC(CO)CO)c2n1 [Ganciclovir, reference compound]										expected levels of antiviral activity
